Measurements from ChEMBL document CHEMBL1201862, “PubChem BioAssay data set” (2004).
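Each compound was tested at five concentrations against cells in 96-well plates for 48 hours. GI50: concentration for 50% inhibition of growth.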 Active and inactive are the calls of the source. Cut-off read from the data, not from the text of the source: active = GI50 up to about 1.1 µM and inactive = higher.

How the values were obtained:
Experiment in all cases: DTP human tumour cell line panel, 48 h
CAKI-1 = system: CAKI-1
DMS-273 = system: DMS-273
HL-60 = system: HL-60
IGROV-1 = system: IGROV-1
KM12 = system: KM12
LOX IMVI = system: LOX IMVI
NCI-H23 = system: NCI-H23
NCI-H460 = system: NCI-H460
NCI-H522 = system: NCI-H522
OVCAR-3 = system: OVCAR-3
RPMI-8226 = system: RPMI-8226
SK-MEL-2 = system: SK-MEL-2
SW-620 = system: SW-620
U-251 = system: U-251
UACC-257 = system: UACC-257
UO-31 = system: UO-31

Measured: GI50

O=CC1CCCc2ccccc21 (stereo not given)
inactive: CAKI-1 > 100 µM | DMS-273 > 100 µM | HL-60 > 63 µM | IGROV-1 > 100 µM | KM12 > 100 µM | LOX IMVI > 44.1 µM | NCI-H23 > 100 µM | NCI-H460 > 61.8 µM | NCI-H522 > 79.6 µM | OVCAR-3 > 100 µM | RPMI-8226 > 43.1 µM | SK-MEL-2 > 100 µM | SW-620 > 40.4 µM | U-251 > 41.5 µM | UACC-257 > 74.3 µM | UO-31 > 100 µM

O=C(Nc1cc(Cl)ccc1Cl)c1cc2cccc(Br)c2oc1=O
inactive: DMS-273 > 100 µM | HL-60 > 100 µM | IGROV-1 > 100 µM | KM12 > 100 µM | LOX IMVI > 100 µM | NCI-H23 > 100 µM | NCI-H460 > 100 µM | NCI-H522 > 100 µM | OVCAR-3 59.8 µM | RPMI-8226 > 100 µM | SK-MEL-2 > 100 µM | SW-620 > 100 µM | U-251 70.5 µM | UACC-257 > 100 µM | UO-31 > 100 µM

O=C1CCC(=O)c2cc(Br)ccc2N1
inactive: CAKI-1 > 100 µM | DMS-273 > 100 µM | HL-60 > 100 µM | IGROV-1 > 100 µM | KM12 > 100 µM | LOX IMVI > 96.6 µM | NCI-H23 > 100 µM | NCI-H460 > 100 µM | NCI-H522 > 100 µM | OVCAR-3 > 100 µM | RPMI-8226 > 67.5 µM | SK-MEL-2 > 100 µM | SW-620 > 57.8 µM | U-251 99.3 µM | UACC-257 > 100 µM | UO-31 > 100 µM

N#CCCN(c1ccc(/C=C2\N=C(Cc3ccccc3)OC2=O)cc1)S(=O)(=O)c1ccccc1
inactive: CAKI-1 > 100 µM | DMS-273 > 100 µM | HL-60 > 100 µM | IGROV-1 > 100 µM | KM12 > 100 µM | LOX IMVI > 100 µM | NCI-H23 > 100 µM | NCI-H460 > 100 µM | NCI-H522 > 100 µM | OVCAR-3 > 100 µM | RPMI-8226 > 100 µM | SK-MEL-2 > 100 µM | SW-620 > 100 µM | U-251 > 100 µM | UACC-257 > 100 µM | UO-31 > 100 µM

CC1CCC2c3c([nH]c4ccccc34)C3C(=O)N(c4ccccc4)C(=O)C3C2C1 (stereo not given)
inactive: CAKI-1 > 250 µM | DMS-273 40.6 µM | HL-60 > 250 µM | IGROV-1 19.7 µM | KM12 > 250 µM | LOX IMVI 42.8 µM | NCI-H23 34.4 µM | NCI-H460 > 250 µM | NCI-H522 142 µM | OVCAR-3 49.8 µM | RPMI-8226 > 100 µM | SK-MEL-2 32.5 µM | SW-620 > 250 µM | U-251 64.9 µM | UACC-257 > 250 µM | UO-31 58.3 µM

O=C(CN1CCN(c2cccc(Cl)c2)CC1)N1CCc2c([nH]c3ccccc23)C1c1cccnc1 (stereo not given)
inactive: CAKI-1 12.8 µM | DMS-273 6.68 µM | HL-60 2.38 µM | IGROV-1 22.4 µM | KM12 4.85 µM | NCI-H23 16.4 µM | NCI-H460 4.4 µM | NCI-H522 12.2 µM | OVCAR-3 15.5 µM | RPMI-8226 1.92 µM | SW-620 7.14 µM | U-251 10.2 µM | UACC-257 5.41 µM | UO-31 4.1 µM

COc1ccc(-n2/c(=N/C(=S)N(C)C)ss/c2=N\C(=S)N(C)C)cc1
inactive: CAKI-1 > 100 µM | DMS-273 10.7 µM | HL-60 17 µM | IGROV-1 14.2 µM | KM12 95.7 µM | LOX IMVI > 100 µM | NCI-H23 39.4 µM | NCI-H460 2.98 µM | NCI-H522 2.54 µM | OVCAR-3 19.8 µM | RPMI-8226 21 µM | SK-MEL-2 46.9 µM | SW-620 > 100 µM | U-251 25.6 µM | UACC-257 > 100 µM | UO-31 > 100 µM

CC(=O)Nc1ccc(/C=C/C(=O)c2sc(-c3cccnc3)nc2C)cc1
inactive: CAKI-1 > 100 µM | DMS-273 > 100 µM | HL-60 > 100 µM | IGROV-1 > 100 µM | KM12 > 100 µM | LOX IMVI > 100 µM | NCI-H23 > 100 µM | NCI-H460 > 100 µM | NCI-H522 > 100 µM | OVCAR-3 > 100 µM | RPMI-8226 > 100 µM | SK-MEL-2 > 100 µM | SW-620 > 100 µM | U-251 > 100 µM | UACC-257 > 100 µM | UO-31 > 100 µM

CSc1cccc(-n2c3nc(=O)n(C)c(=O)c-3nc3ccccc32)c1
inactive: CAKI-1 3.91 µM | DMS-273 1.66 µM | HL-60 3.34 µM | IGROV-1 13.6 µM | KM12 12.9 µM | NCI-H23 4.35 µM | NCI-H460 2.4 µM | NCI-H522 14.7 µM | OVCAR-3 2.26 µM | RPMI-8226 5.77 µM | SK-MEL-2 13 µM | SW-620 3.78 µM | U-251 7.98 µM | UACC-257 4.94 µM | UO-31 17.4 µM
